According to publication PMC4104761, “Identification of a novel lytic peptide for the treatment of solid tumours” (Genes & Cancer, 2014):

Assays:
all cancer cell lines = assay: MTT viability assay, average of all cancer cell lines; format: cell-based; conditions: 20 µg Cypep-1/ml, 60 min exposure
Experimental: (§1) Cypep-1 was tested in various concentrations on a total of 17 cell lines, which included 13 human and 1 murine tumour cell line(s), as well as 3 normal human cell lines. Listed in detail: 4 human osteosarcoma (U2OS, SaOS2, HOS and MNNG-HOS), 6 human glioblastoma (A172, GaMg, LN18, U87, U373 and T98G) and 3 human mammary carcinoma cell lines (MCF7, AU565 and MDA-MB-468) as well as an additional murine mammary carcinoma cell line (4T1). Furthermore, 3 normal human cell lines were included: 2 normal human fibroblast cell lines (HFF1 and 142Br) as well as normal human osteoblasts (HOB).
(§2) MTT proliferation assays were performed on all cell lines (with the exception of 142Br (human skin fibroblasts)), using monolayers of 15 000 cells in sterile 96 well tissue culture plates (Nunc™, Roskilde, Denmark), respectively. All cells were incubated with Cypep-1 dissolved in 0.9% NaCl, at the following concentrations: 0.1, 0.5, 1.0, 5, 10, 15, 20, 25, 30 and 35µg of Cypep-1 per ml and assayed after 15, 30, 45, 60, 75, 90, 180, 270 and 360 min.

[1] = tested on: HFF1 normal human foreskin fibroblasts; assay: LIVE/DEAD Viability/Cytotoxicity assay; format: cell-based; conditions: morphometric evaluation (Calcein), 35 µg Cypep-1/ml, 3 hours
Experimental: (§3) In order to visualise and quantify the cytotoxic action of Cypep-1 simultaneously, the LIVE/DEAD® Viability/Cytotoxicity Kit was employed according to the manufacturers instructions on monolayers of 30 000 cells in sterile 24 multi well dishes (Nunc™, Roskilde, Denmark), using the selected human osteosarcoma cell lines U2OS and SaOs2 as well as the two human fibroblast cell lines HFF1 (foreskin) and 142Br (skin).
(§4) The monolayer cultures were incubated with Cypep-1 for a period of 3 hours in concentrations ranging from 2.5 µg to 35 µg/ml. The cells were observed using an inverted fluorescence microscope (Nikon Eclipse 2000E, Tokyo, Japan) equipped with FITC (green fluorescence) and TRITC (red fluorescence) filter optics. The fluorescent cells were then photographed at a 10x magnification. The proportions of viable cells (live cells showing green fluorescence due to the presence of Calcein) and dead cells (red fluorescent due to the membrane penetration of Ethidium-Homodimer-1) were quantified using a Lucia G Morphometry System, Version 4.71 (Laboratory Imaging, Prague, Czech Republic).

[2] = tested on: 142Br normal human skin fibroblasts; assay: LIVE/DEAD Viability/Cytotoxicity assay; format: cell-based; conditions: morphometric evaluation (Calcein), 35 µg Cypep-1/ml, 3 hours
Experimental: as §3, §4

U87 cells = assay: Comparison of peptide variants by crystal violet staining and light microscopy
Source text: The sizes of the resulting in silico peptides varied from 10 to 30 amino acids. In order to facilitate their cellular internalisation, a TAT-HIV sequence was attached to the C-terminal ends. All peptides were […]. The peptide library was produced by Cambridge Peptides (Cambridge, UK). The peptides were then screened with the MTT (3-(4,5-dimethylthiazol-2-yl)-2,5-diphenyltetrazolium bromide) assay on U87 human glioma cells. Cellular morphology after peptide exposure was assessed by crystal violet staining and light microscopy. All experiments were performed in triplicate.
To increase the stability of the peptide, two further sub-formulations of the original formula (L-aa, containing only L-amino acids) were created: D-aa (retro inversed, (ri)), a peptide comprised of a backward sequence of the original in silico formula, yet made up solely of D-amino acids and an analogue peptide to original in silico peptide formula, comprised of D-amino acids. D-amino acids are highly resistant to protease mediated degradation and have a low immunogenic response. The respective peptide variants were tested in the following concentrations: 7.5, 10, 15, 20 and 25 µg/ml and incubated for 3 hours.

[3] = Biodistribution of 125I-Cypep-1 after i.v. injection; format: in vivo, Wistar rat; conditions: rat
Experimental: The radio labelling of Cypep-1 was performed with ^125I, according to the Iodo-Gen method as described by Fraker et al.. The obtained ^125I-Cypep-1 stock solution was stored in the dark at 4°C for 48 hours prior to validation by reversed phase chromatography, using a 4.6 × 50 mm Dionex Proswift RP-2H column on an Ettan LC System (GE Healthcare, Oslo, Norway) in line with a Radiomatic 610TR Flow System Analyzer by Perkin Elmer (PerkinElmer, Waltham, MA) for gamma detection.
The plasma activity and biodistribution of ^125I-Cypep-1 was evaluated in a single experiment. An adult female Wistar rat of 260 g body weight was anaesthetized using 15 mg of Pentobarbital i.p.. Its body temperature was maintained at 37°C, using both a heating pad and an infrared lamp. Two PE-50 polyethylene catheters were placed into the femoral vein for the bolus injection of Cypep-1 and one into the femoral artery for blood sampling. 50 µl of the ^125I-Cypep-1 stock solution dissolved in 500 µl 0.9% NaCl were injected i.v., and a total of six arterial blood samples (100 µl per sample) were collected at 0.25, 1, 5, 10, 15 and 20 min following the ^125I-Cypep-1 administration. The animal was sacrificed under deep anaesthesia with an i.v. bolus injection of 0.5 ml saturated KCl. The tissue and plasma samples were harvested immediately and counted for ^125I-activity in a gamma-counter (LKB Wallac 1285, Turku, Finland). The peptide distribution volumes in the various body tissues were calculated as the ^125I-activity per gram tissue sample divided by the time-averaged plasma ^125I-activity during the 20 minutes clearance period (*= plasma equivalent space in ml/g tissue wet weight).

normal human cell lines = assay: MTT viability assay, average of normal human cell lines; format: cell-based; conditions: 20 µg Cypep-1/ml, 60 min exposure
Experimental: as §1, §2

[4] = 125I-Cypep-1, i.v., 20 min after administration, gamma counting, single animal

For YGRKKRRQRRRGKTLRVAKAIYKRYIE [Cypep-1], the “surviving fraction, average of all cancer cell lines” value (all cancer cell lines) was 18.6%, the viability [1] was 64% and the viability [2] was 81%. The “cytotoxic effect / potency by crystal violet staining” value (U87 cells; U87 cells, 7.5, 10, 15, 20 and 25 µg/ml, 3 hours incubation) was “more potent than the parent L- amino acid formula”, the “monolayer appearance by light microscopy” value (U87 cells; U87 monolayer, 15 µg/ml, 3 hours exposure) was “extensive cell loss” and the “tissue distribution, cerebellum” value [3, 4] was 0.00 ml/g tissue wet weight. For the same sequence, the “tissue distribution, cerebrum” value [3, 4] was 0.01 ml/g tissue wet weight, the “tissue distribution, colon” value [3, 4] was 0.14 ml/g tissue wet weight and the “tissue distribution, eye” value [3, 4] was 0.02 ml/g tissue wet weight. For the same sequence, the “tissue distribution, jejunum” value [3, 4] was 0.17 ml/g tissue wet weight, the “tissue distribution, kidneys (per kidney)” value [3, 4] was 1.685 ml/g tissue wet weight and the “tissue distribution, liver” value [3, 4] was 11.74 ml/g tissue wet weight. The “tissue distribution, lungs” value [3, 4] was 0.38 ml/g tissue wet weight, the “tissue distribution, muscle tissue” value [3, 4] was 0.02 ml/g tissue wet weight and the “tissue distribution, spleen” value [3, 4] was 4.89 ml/g tissue wet weight. The “tissue distribution, stomach” value [3, 4] was 0.04 ml/g tissue wet weight, the “tissue distribution, thyroid gland” value [3, 4] was 0.13 ml/g tissue wet weight and the “passage of the blood-brain-barrier” value ([3]; concluded from very low concentrations in organs of the central nervous system, i.v.) was “did not pass the blood-brain-barrier”. The “surviving fraction, average of normal human cell lines” value (normal human cell lines) was 56%.
